Assay results reported in publication PMC11032351, “Epigenetic modulation through BET bromodomain inhibitors as a novel therapeutic strategy for progranulin-deficient frontotemporal dementia” (Scientific Reports, 2024).

Key:
GRN mRNA = experiment: qPCR of GRN mRNA in human NPCs (enhancer screen and follow-up); type: cell-based; conditions: 24 h; for increase of GRN mRNA: NPCs
Description: (§1) All compounds were purchased from commercial vendors. All compounds were made at 1000 × stocks in DMSO (Sigma Aldrich #D2438), except for sodium valproate, which was dissolved in ddH2O. NPCs and neurons were generated and maintained as described above. For treatment, the stock compounds were diluted 1:1000 in NPC media (final DMSO concentration 0.1%), which was then applied to confluent NPCs or 18-day differentiated neurons derived from confluent NPC cultures for indicated time periods.
RNA was generated from each well of a 6-well treated plate of NPCs or neurons. First, media from each well was aspirated, and washed with 1 mL of dPBS. Wells were then lysed with 1 mL TRIzol Reagent (ThermoFisher #11,596,026). Wells were then incubated at room temperature for 5 min, and then RNA was extracted using the DirectZol RNA MiniPrep Kit (Zymo Research #R2052). RNA was stored at − 80 °C until further use. cDNA was generated using the High-Capacity cDNA synthesis Kit with RNase inhibitor (ThermoFisher #4,368,814) using 1000–1200 ng RNA per reaction. cDNA was either used immediately or stored at -20 °C until use, where it was then diluted 1:4 with DNase/RNase-free water (Invitrogen #10,977–015).
qPCR was conducted using the Roche 480 Light Cycler in a 384-well plate. To each well was added 5 μL of TaqMan 2X Gene Expression Master Mix (ThermoFisher #4,369,510), 0.5 μL of 20X TaqMan primer probe (ThermoFisher, GRN: Hs00963707_g1, GAPDH: Cat.#432924E), 0.5 μL of DNase/RNase-free H2O, and 4 μL of above diluted cDNA. Results were normalized to GAPDH, and replicate mean values and standard error of the mean are reported.

PGRN protein levels [1] = experiment: PGRN quantification (Jess) in GRN R493X/+ NPCs; type: cell-based, human; conditions: 24 h
Description: (§2) PGRN capillary gel electrophoresis experiments were performed using Jess (Bio-Techne) and data were processed and analyzed using Compass for Simple Western software (version 6.0). Runs were conducted using EZ Standard Pack 1 12–230 kDa (Bio-Techne PS-ST01EZ-8), 12–230 kDa pre-filled plates (PS-PP03), 12–230 kDa separation module (SMW004), anti-rabbit HRP detection (DM-001), RePlex (RP-001), and total protein detection modules (DM-TP01, biotin labeling reagent 042-973) according to the manufacturer’s instructions, and with anti-PGRN primary (Abcam ab208777) diluted 1:50 in milk-free antibody dilution buffer (043–524). The following run settings were used for each experiment: separation time: 25 min, separation voltage: 375 V, RePlex purge time: 30 min, biotin labeling time: 30 min, antibody diluent time: 5 min, primary antibody time: 30 min, secondary antibody time: 30 min, total protein HRP time: 30 min. All intensity quantifications are normalized to the total protein assay quantification unless otherwise indicated.
(§3) For GRN^R493^X/+ NPCs, cells were grown to confluency in 6-well plates according to the above NPC culturing procedure. To each well was directly added 2 µL of 100 µM panobinostat, […], or DMSO only to produce final in-well concentrations of 100 nM or 1 µM, respectively (0.1% DMSO final concentration). […]

PGRN protein levels [2] = experiment: PGRN quantification (Jess) in GRN R493X/+ 14-day differentiated neurons; type: cell-based, human; conditions: GRN R493X/+ 14-day growth factor differentiated neurons, 24 h
Description: as §2, §3

PGRN-Luc = experiment: HMC3 PGRN-luciferase reporter assay; type: cell-based, human; conditions: HMC3 PGRN-Luc cells, 20 h
Description: HMC3 PGRN-Luc cells were trypsinized from confluent T-75 flasks and re-suspended in HMC-3 media at 150,000–200,000 cells/mL. 30 µL of cell suspension was then seeded onto each well of black, 384-well clear-bottom plates (Corning 3712) using the Multidrop Combi (Thermo Fisher). Cells were allowed to adhere to plates in the incubator at 37 °C/5% CO2 for 6–8 h. After 6–8 h, compounds were added to each well using the D300e (Tecan) compound dispenser, and all wells were DMSO-normalized (0.3%). Cells were allowed to incubate with compounds for indicated timeframes.
Plates were removed from the incubator and allowed to cool to RT. 15 µL of media was removed from each well using a multichannel pipette and added to separate Corning 3712 plates for a read of “secreted” PGRN. To both the media-containing plates as well as the cell-containing plates (with 15 µL media remaining) is then added 15 µL of active luminescence reagent (Thermo 18,636) which was generated according to manufacturer’s instructions. Plates were allowed to nutate at RT for 15 min prior to reading using the EnVision (PerkinElmer). For calculation of the internal PGRN-Luc signal, the secreted signal (15 µL media) was subtracted from the signal of the cell-containing plates (with 15 µL media remaining). For “total” PGRN-Luc signal, a sample of media was not aliquoted into a separate plate, and instead, 30 µL of active luminescence reagent was added directly to each well.
For the mivebresib and panobinostat time-course experiment, the above procedure was followed, with the exception that cells were seeded at 66,600 cells/mL in 30 µL media, and allowed to grow overnight prior to compound addition for the indicated timeframes.

PGRN protein levels [3] = experiment: Immunoblotting of PGRN protein in human NPCs; type: cell-based; conditions: 24 h, immunoblot
Description: as §1
(§4) Cell pellets were collected from each well of a 6-well plate (or lysed directly in-well for 24-well plates), lysed in radio immunoprecipitation assay (RIPA) buffer (Boston BioProducts #BP-115) with EDTA-free protease inhibitors (Sigma Aldrich #4,693,159,001) and a phosphatase inhibitor cocktail (Sigma Aldrich #P5726) and nutated at 4 °C for 15–30 min. Lysates were clarified via centrifugation at > 14,000 rcf at 4 °C for > 10 min and the supernatants were collected. Protein quantification was done with the Pierce bicinchoninic assay (BCA) (Thermo Fisher #23,227). Lysates were then stored between − 20 and − 80 °C until ready for use. […]
(§5) In probing for PGRN, proteins were separated on NuPAGE 4–12% Bis–Tris gels (ThermoFisher #NP0335BOX) in MOPS SDS Running buffer (ThermoFisher #NP0001). […] Protein quantification was done with ImageJ and normalized to GAPDH.

PGRN protein levels [4] = experiment: Immunoblotting of PGRN protein in 18-day differentiated neurons; type: cell-based, human; conditions: 24 hours, immunoblot
Description: NPCs were seeded at 0.5 × 10^6 cells per well in a poly-ornithine/laminin single coated 6-well plate in 2 mL NPC media with above growth factors. Cells were allowed to incubate at 37 °C for 48–72 h to grow to confluency. After reaching confluency, the media was aspirated, and cells were incubated in NPC media without growth factors for the indicated timeframes, with media changes every 3–4 days.
All compounds were purchased from commercial vendors. All compounds were made at 1000 × stocks in DMSO (Sigma Aldrich #D2438), except for sodium valproate, which was dissolved in ddH2O. NPCs and neurons were generated and maintained as described above. […]
as §4, with “Lysates were clarified via centrifugation at > 14,000 rcf at 4 °C for > 10 min and the supernatants were collected.” left out
as §5

Cc1[nH]c2ccccc2c1CCNCc1ccc(/C=C/C(=O)NO)cc1 [Panobinostat, panobinostat]
GRN Fold-change (Norm. to GAPDH) ± Std. Error (GRN mRNA; human NPCs, dose 1 µM, relative to DMSO): 3.08 ± 0.35 | PGRN protein levels (PGRN protein levels [1]): rescues PGRN haploinsufficiency | PGRN protein levels (PGRN protein levels [2]): rescues PGRN haploinsufficiency | enhancement of internal PGRN-Luc signal (PGRN-Luc): able to enhance both internal and secreted PGRN at sub-µM concentrations | enhancement of secreted PGRN-Luc signal (PGRN-Luc): able to enhance both internal and secreted PGRN at sub-µM concentrations

COc1ccccc1S(=O)(=O)Nc1ccc2c(c1)CN(C)C(=O)N2 [PFI-1]
increase of GRN mRNA (GRN mRNA; 10 µM): ~ 2.5 fold | PGRN protein levels (PGRN protein levels [3]; 10 µM): substantially increased PGRN protein levels | PGRN expression (PGRN protein levels [4]; 10 µM): can enhance PGRN expression

Cc1sc2c(c1C)C(c1ccc(Cl)cc1)=N[C@@H](CC(=O)OC(C)(C)C)c1nnc(C)n1-2 [(+)-JQ1]
increase of GRN mRNA (GRN mRNA; 1 µM): ~ 2.5 fold | PGRN protein levels (PGRN protein levels [3]; 1 µM): substantially increased PGRN protein levels | PGRN expression (PGRN protein levels [4]; 1 µM): can enhance PGRN expression
